Measurements reported in US20220031667A1, “THIAZOLIDINEDIONE ANALOGS FOR THE TREATMENT OF NAFLD AND METABOLIC DISEASES” (Cirius Therapeutics, Inc., priority 2019, published 2022).
“Also recorded” adds a separate entry of the source.

Tests used:
[1] = preclinical toxicology, six- and twelve-month animal studies; assay type: in vivo
[2] = tested on: cell functions and key regulatory proteins; test: impact of MSDC-0602K vs overnutrition on cell functions and key regulatory proteins (Table 1)
[3] = tested on: diet-induced obese WT (fl/fl) and LS-MPC2−/− mice; test: single dose in diet-induced obese (60% HF diet) WT and LS-MPC2−/− mice: GTT, plasma insulin, plasma ALT, liver qPCR; assay type: in vivo; conditions: for glucose tolerance (GTT): vs vehicle
Protocol: 8 week old WT and LS-MPC2−/− mice were fed a diet of 60% fat (Research Diets D12492) for 20 weeks to induce obesity and insulin resistance. Intraperitoneal glucose tolerance tests (GTT) were performed after a 4 h fast by injection of 1 g/kg D-glucose in saline i.p. to assess glucose tolerance. 3 days after the initial GTT, mice were randomized to receive a single gavage of either vehicle (1% CMC, 0.01% Tween-80) or 30 mg/kg MSDC-0602K. Plasma insulin was measured by Singulex assay and plasma ALT levels were measured by commercially-available kits (Teco Diagnostics). qPCR was performed by isolation of total RNA with RNA-Bee and reverse transcription with a high-capacity cDNA synthesis kit (Invitrogen). qPCR was performed on an Applied Biosystems real-time thermocycler.

[4] = tested on: stellate cells in 3-dimensional bioprinted human liver organoids; test: 3-dimensional bioprinted human liver organoids in medium with high sugars and fatty acid, collagen staining; assay type: cell-based; conditions: added to the tissue medium with high concentrations of sugars and fatty acid
[5] = tested on: subjects with biopsy proven NASH with fibrosis and no cirrhosis; test: EMMINENCE Phase 2b clinical trial, interim analysis at six months; assay type: in vivo, humans; conditions: for peripheral edema present at 6 months: placebo 12.50%; for percentage of patients with high baseline ALT who returned to normal range: placebo 15%; for percentage of patients with high baseline AST who returned to normal range: placebo 20%
Source text: Detailed Description: This is a randomized, double-blinded study of three doses of MSDC-0602K or placebo given orally once daily to subjects with biopsy proven NASH with fibrosis and no cirrhosis. Visits to the clinic will be at baseline, 1, 2, 3, 6, 9, and 12 months, with one 2-week follow-up visit. Safety will be assessed by monitoring of vital signs, 12 lead electrocardiogram (ECG), physical examinations, safety labs, and adverse events (AEs).
An interim analysis of the EMMINENCE Phase 2b trial was conducted in the first 328 subjects who reached their six-month follow-up visit. […] In the two highest dose groups, at least 50% of patients with elevated baseline Alanine transaminase (ALT) or Aspartate Aminotransferase (AST) improved into the normal range at six months, as shown in Table 3.
The subjects included in this interim analysis had significant liver disease, as established by liver biopsy, with an average NAS at baseline of 5.3. […] Overall, baseline characteristics were well-balanced across treatment groups.

[6] = tested on: mice on high fat, high cholesterol, high sugar diet; test: preclinical NASH model: diet enriched in trans fat, cholesterol and fructose for 19 weeks; assay type: in vivo
Protocol: Mice were fed a diet enriched in trans fat, cholesterol and fructose for 19 weeks to induce hepatic damage, which was assessed by histological changes in the NAS and fibrosis, measured by trichrome staining for collagen. MSDC-0602K (30 mg/kg) was given at either four weeks into the treatment or 16 weeks into the treatment as compared to the vehicle treated mice who were also on the modified diet. The results of mice who were kept on the normal diet are included for comparison. […] The signals for activation of the stellate cells and fibrosis are attenuated by treatment of the mice or isolated hepatocytes with MSDC-0602K.

[7] = tested on: WT mice on HTF-C diet (mouse model of NASH); test: NASH (HTF-C) diet plasma RNA experiments: serum miRNA sequencing; assay type: in vivo; conditions: HTF-C diet 4 or 16 weeks, then HTF-C diet containing 331 ppm
Protocol: To begin evaluating the exosome cargo of MSDC-0602K-treated mice, WT mice were fed with either a low fat (LF) control diet (Research Diets D09100304) or high trans-fat, fructose, cholesterol (HTF-C) diet composed of 40% trans-fat, 20% fructose, 2% cholesterol (Research Diets D09100301).
Total RNA was isolated from 400 μL of serum and small RNA sequencing was performed by adapter ligation, cDNA synthesis and size selection of 145-160 base pairs. Sequencing was then performed on an Illumina HiSeq3000.

[8] = tested on: healthy volunteers; test: three Phase 1 clinical trials in 126 healthy volunteers, safety; assay type: in vivo, humans; conditions: Phase 1, healthy volunteers
[9] = molecular target: T1, MPC (mitochondrial pyruvate carrier) (Homo sapiens, UniProt O95563+Q9Y5U8); test: relative binding affinities with the MPC; conditions: FIG. 16 as printed (legend: FIG. 8); relative to rosiglitazone and pioglitazone
T1 sequence (Q9Y5U8 1-109): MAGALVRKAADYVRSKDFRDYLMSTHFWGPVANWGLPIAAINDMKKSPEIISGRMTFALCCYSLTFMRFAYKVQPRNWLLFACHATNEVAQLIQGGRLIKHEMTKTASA
T1 sequence (O95563 1-127): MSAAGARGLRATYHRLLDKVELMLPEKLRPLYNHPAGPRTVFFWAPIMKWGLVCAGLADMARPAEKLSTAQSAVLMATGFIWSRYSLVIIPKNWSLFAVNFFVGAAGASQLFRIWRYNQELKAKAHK

[10] = clinical pharmacokinetics (Phase 1 cross-over trials, Phase 2a trial); conditions: human, in vivo; humans, oral
[11] = exposure and bioavailability of MSDC-0602, its metabolite and the potassium salt; assay type: in vivo; conditions: parent plus metabolite exposure
[12] = molecular target: T2, PPARγ (Homo sapiens, UniProt P37231); test: relative binding affinities with PPARγ; conditions: FIG. 15 as printed (legend: FIG. 7)
T2 sequence (P37231 1-505): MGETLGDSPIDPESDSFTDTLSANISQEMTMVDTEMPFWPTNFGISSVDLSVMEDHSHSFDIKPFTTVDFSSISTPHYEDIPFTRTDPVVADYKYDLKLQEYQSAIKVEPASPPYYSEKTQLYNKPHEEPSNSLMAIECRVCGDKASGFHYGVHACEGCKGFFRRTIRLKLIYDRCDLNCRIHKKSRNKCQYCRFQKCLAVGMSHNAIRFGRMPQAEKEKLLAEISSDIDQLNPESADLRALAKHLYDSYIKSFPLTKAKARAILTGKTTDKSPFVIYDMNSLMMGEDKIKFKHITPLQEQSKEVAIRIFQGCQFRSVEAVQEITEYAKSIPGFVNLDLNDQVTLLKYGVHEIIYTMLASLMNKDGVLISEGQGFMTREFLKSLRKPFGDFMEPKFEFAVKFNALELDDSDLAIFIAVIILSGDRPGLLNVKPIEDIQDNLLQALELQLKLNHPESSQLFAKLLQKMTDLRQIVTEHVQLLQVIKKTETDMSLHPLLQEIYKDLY

## COc1cccc(C(=O)COc2ccc(CC3SC(=O)NC3=O)cc2)c1 (centres unmarked) [MSDC-0602K]
[1]; doses up to seven-fold the currently used clinical dose equivalents
  safety findings in toxicological profile: free acid, have been characterized and no significant safety findings
[1]; six- and twelve-month preclinical animal studies
  safety and tolerability: 0602K, MSDC-0602K was found to be safe and well-tolerated.
[2]
  Fatty acid oxidation (burning fat): Increased
  HIF1α (transcription factor responding to oxygen): Decreased
  Inflammation (ballooning due to injury): Decreased
  Insulin sensitivity (cellular response to insulin): Increased
  PPARγ, PPARα (transcription factors regulating fat metabolism and inflammation): Increased
  SREBP (transcription factor regulating fat synthesis): Decreased
  de novo lipid synthesis (making new fat): Decreased
  mTORC1 (important nutrient sensor): Decreased
[3]; obese WT mice, GTT 20 h after a single gavage of 30 mg/kg, 30 mg/kg
  glucose tolerance (GTT): improves glucose tolerance
[4]
  nutrient-induced stellate cell activation and fibrosis (staining for collagen): both prevented and reversed the effects of the nutrients
[5]; 62.5 mg (n = 81), baseline 13.60%
  peripheral edema present at 6 months: 7.80%
[5]; 62.5 mg, six months
  percentage of patients with high baseline ALT who returned to normal range: 29%
  percentage of patients with high baseline AST who returned to normal range: 36%
[5]; 125 mg (n = 84), baseline 13.10%
  peripheral edema present at 6 months: 13.50%
[5]; 125 mg once daily, p<0.001
  placebo-corrected reduction in ALT at six months: 14.3 U/L
[5]; 125 mg once daily, p=0.012
  placebo-corrected reduction in AST at six months: 7.9 U/L
[5]; 125 mg, six months
  percentage of patients with high baseline ALT who returned to normal range: 60%
  percentage of patients with high baseline AST who returned to normal range: 50%
[5]; 250 mg (n = 85), baseline 9.40%
  peripheral edema present at 6 months: 11.10%
[5]; 250 mg once daily, not significant
  placebo-corrected reduction in AST at six months: 4.0 U/L
[5]; 250 mg once daily, p=0.004
  placebo-corrected reduction in ALT at six months: 10.6 U/L
[5]; 250 mg, six months
  percentage of patients with high baseline ALT who returned to normal range: 56%
  percentage of patients with high baseline AST who returned to normal range: 52%
[5]; Type II diabetes subjects, all doses
  HbA1c: statistically significant improvement
[5]; all MSDC-0602K dose cohorts, six months
  HOMA-IR and HbA1c: Statistically significant reductions
[5]; all subjects, six months, 125 mg and 250 mg doses
  fasting glucose, HbA1c, insulin levels, and HOMA-IR: statistically significant improvements
[5]; all treatment cohorts, dose dependent
  Adiponectin: increased significantly
[5]; first 328 subjects
  liver enzymes, including ALT and AST, at six months compared to baseline: statistically significant reductions
[5]; overall
  lipids: neutral effect
[5]; reported in fourteen subjects, blinded across cohorts
  treatment emergent serious adverse events: none of which were determined by the investigator to be drug-related
[5]; six months
  additional biomarkers of fibrosis such as hematocrit: trends for improvement
  bilirubin, alkaline phosphatase, and gamma GT liver enzymes: Improvements
[5]; two highest dose groups (125 mg, 250 mg)
  patients with elevated baseline ALT or AST improved into the normal range at six months: at least 50%
[5]; two lowest doses
  C-Reactive Protein levels: decrease
[6]; 30 mg/kg from week 4 or week 16 of a 19 week diet, mice or isolated hepatocytes
  signals for activation of the stellate cells and fibrosis: attenuated

## COc1cccc(C(=O)COc2ccc(CC3SC(=O)NC3=O)cc2)c1 (centres unmarked) [MSDC-0602]
[7]
  serum miRNAs altered by HTF-C diet: largely corrected
[8]
  most commonly reported adverse events: commonly reported adverse events with MSDC-0602 were headache,; also recorded: emesis, diarrhea and abdominal bloating
[8]; MSDC-0602 or MSDC-0602K
  deaths, serious adverse events, severe adverse events or discontinuations due to adverse events: No deaths
  safety laboratory tests, vital signs, physical examination findings or electrocardiogram abnormalities considered clinically significant: events were reported. Overall, it was determined that there were no
[3]; LS-MPC2−/− mice, acute treatment
  plasma ALT and liver injury gene expression in LS-MPC2−/− mice: refractory to the beneficial effects
[3]; WT mice, single dose (FIG. 3A)
  plasma ALT concentrations: decreased plasma ALT concentrations
[3]; WT mice, single dose (FIG. 3B)
  gene expression for hepatic stellate cell activation and fibrotic scar formation: decreased gene expression
[3]; both WT and LS-MPC2−/− mice, single dose 30 mg/kg
  plasma insulin values: decreased
[3]; obese LS-MPC2−/− mice, GTT 20 h after a single dose of 30 mg/kg
  glucose tolerance (GTT): no improvement in glucose tolerance
[3]; obese WT mice, GTT 20 h after a single gavage of 30 mg/kg
  glucose tolerance (GTT): improved glucose tolerance
[9]
  binding to the MPC: maintain, and in some cases improve, binding to the MPC
[10]
  half-life: 11 to 17 h
[6]; multiple animal models of NASH
  protection against the high fat, high cholesterol, high sugar diet representative of NASH disease: has been shown to protect

## COc1cccc(C(O)COc2ccc(CC3SC(=O)NC3=O)cc2)c1 (centres unmarked) [primary metabolite of MSDC-0602]
[11]
  share of the combined exposure: more than 90%
[12]
  reduction in binding affinity for PPARγ compared to pioglitazone: more than fifty-fold reduction
[9]
  binding to the MPC: maintain, and in some cases improve, binding to the MPC
